Where a name gives a salt, the structure may show the parent alone. Blank lines part the entries; values can stand above or below the molecule they belong to.
Columns and labels:
P-gp = target: T1, P-gp (Homo sapiens, UniProt P08183); experiment: calcein-AM transport inhibition in MDCK-MDR1 cells; format: cell-based; conditions: mean ± SEM
T1 construct: expressed in transfected cells; host or cells: MDCK-MDR1 (Madin-Darby Canine Kidney, transfected; gift from Prof; P. Borst, NKI-AVL)
Procedure: (§1) The inhibiting activity of the two compounds on P-gp and MRP1 was evaluated by measuring the transport inhibition of the profluorescent probe calcein-AM (P-gp and MRP1 substrate) in MDCK-MDR1 and MDCK-MRP1 cells (P-gp- and MRP1-overexpressing cells, respectively). The activity on BCRP was instead evaluated using the fluorescent probe Hoechst 33342 (BCRP substrate) in MDCK-BCRP cells (BCRP-overexpressing cells).[43]
(§2) MDCK-MDR1, MDCK-MRP1, and MDCK-BCRP cells are a gift from Prof. P. Borst, NKI-AVL Institute, Amsterdam, The Netherlands. Cells were grown in Dulbecco’s modified Eagle’s medium (DMEM) high glucose supplemented with 10% fetal bovine serum, 2 mM glutamine, 100 U/mL of penicillin, and 100 μg/mL of streptomycin in a humidified incubator at 37 °C with a 5% CO2 atmosphere. Cell culture reagents were purchased from Celbio s.r.l. (Milano, Italy). CulturePlate 96/wells plates were purchased from PerkinElmer Life Science (Waltham, MA) and Falcon (BD Biosciences, Bedford, MA). Calcein-AM and Hoechst 33342 (bisbenzimide H 33342 trihydrochloride) were obtained from Sigma-Aldrich (Milan, Italy). The other reagents were purchased from Sigma Merck Millipore.

MRP1 = target: T2, MRP1 (Homo sapiens, UniProt P33527); experiment: calcein-AM transport inhibition in MDCK-MRP1 cells; format: cell-based; conditions: NA, not active
T2 construct: expressed in transfected cells; host or cells: MDCK-MRP1 (Madin-Darby Canine Kidney, transfected; gift from Prof; P. Borst, NKI-AVL)
Procedure: as §1, §2

BCRP = target: T3, BCRP (Homo sapiens, UniProt Q9UNQ0); experiment: Hoechst 33342 transport inhibition in MDCK-BCRP cells; format: cell-based; conditions: NA, not active
T3 construct: expressed in transfected cells; host or cells: MDCK-BCRP (Madin-Darby Canine Kidney, transfected; gift from Prof; P. Borst, NKI-AVL)
T3 sequence (Q9UNQ0 1-655): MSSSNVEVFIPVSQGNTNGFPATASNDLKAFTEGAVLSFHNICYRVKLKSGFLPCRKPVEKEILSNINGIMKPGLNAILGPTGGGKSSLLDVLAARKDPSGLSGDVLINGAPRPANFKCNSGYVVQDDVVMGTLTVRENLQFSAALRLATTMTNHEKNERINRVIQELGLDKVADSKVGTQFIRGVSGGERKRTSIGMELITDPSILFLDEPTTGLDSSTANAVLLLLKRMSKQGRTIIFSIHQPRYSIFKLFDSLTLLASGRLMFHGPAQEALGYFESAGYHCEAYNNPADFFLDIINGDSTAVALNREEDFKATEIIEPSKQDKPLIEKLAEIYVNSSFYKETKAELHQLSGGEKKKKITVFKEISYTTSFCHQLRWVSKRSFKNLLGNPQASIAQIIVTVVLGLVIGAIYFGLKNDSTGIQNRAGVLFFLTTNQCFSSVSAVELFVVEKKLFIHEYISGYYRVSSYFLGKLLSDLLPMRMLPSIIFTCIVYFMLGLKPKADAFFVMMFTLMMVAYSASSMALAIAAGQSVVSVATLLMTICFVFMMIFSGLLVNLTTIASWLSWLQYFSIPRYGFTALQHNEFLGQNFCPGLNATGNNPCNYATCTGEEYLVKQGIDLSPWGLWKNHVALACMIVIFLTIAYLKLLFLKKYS
Procedure: as §1, §2

HT29/DOX cells = experiment: intracellular accumulation of doxorubicin in HT29/DOX cells; format: cell-based, human; conditions: 24 h with 5 μM doxorubicin, compound at 1 and 3 μM, dose-dependent
Procedure: (§3) A 50 μL aliquot was sonicated and used for the measurement of the protein content. […] Fluorescence was converted in nmol/mg cell proteins using a calibration curve previously set.

A549/DOX cells = experiment: intracellular accumulation of doxorubicin in A549/DOX cells; format: cell-based, human; conditions: 24 h with 5 μM doxorubicin, compound at 1 and 3 μM, dose-dependent
Procedure: as §3

P-gp KO HT29/DOX cells = experiment: intracellular accumulation of doxorubicin in P-gp KO HT29/DOX cells; format: cell-based, human; conditions: 24 h with 5 μM doxorubicin, compound at 1 and 3 μM
Procedure: as §3

P-gp KO A549/DOX cells = experiment: intracellular accumulation of doxorubicin in P-gp KO A549/DOX cells; format: cell-based, human; conditions: 24 h with 5 μM doxorubicin, compound at 1 and 3 μM
Procedure: as §3

hCA I = hCA I (Homo sapiens, UniProt P00915); experiment: stopped-flow CO2 hydrase assay, hCA I; conditions: read-out: Ki hCA I; stopped-flow technique, mean from three different assays
Text: (§4) An SX.18MV-R Applied Photophysics (Oxford, U.K.) stopped-flow instrument has been used to assay the catalytic/inhibition of various CA isozymes.[38] […] The inhibition constants were obtained by nonlinear least-squares methods using the Cheng–Prusoff equation, as reported earlier,[32] and represent the mean from at least three different determinations.

hCA II = hCA II (Homo sapiens, UniProt P00918); experiment: stopped-flow CO2 hydrase assay, hCA II; conditions: read-out: Ki hCA II; stopped-flow technique, mean from three different assays
Text: as §4

hCA IX = hCA IX (Homo sapiens, UniProt Q16790); experiment: stopped-flow CO2 hydrase assay, hCA IX; conditions: read-out: Ki hCA IX; stopped-flow technique, mean from three different assays
Text: as §4

T2 sequence (P33527 whole entry): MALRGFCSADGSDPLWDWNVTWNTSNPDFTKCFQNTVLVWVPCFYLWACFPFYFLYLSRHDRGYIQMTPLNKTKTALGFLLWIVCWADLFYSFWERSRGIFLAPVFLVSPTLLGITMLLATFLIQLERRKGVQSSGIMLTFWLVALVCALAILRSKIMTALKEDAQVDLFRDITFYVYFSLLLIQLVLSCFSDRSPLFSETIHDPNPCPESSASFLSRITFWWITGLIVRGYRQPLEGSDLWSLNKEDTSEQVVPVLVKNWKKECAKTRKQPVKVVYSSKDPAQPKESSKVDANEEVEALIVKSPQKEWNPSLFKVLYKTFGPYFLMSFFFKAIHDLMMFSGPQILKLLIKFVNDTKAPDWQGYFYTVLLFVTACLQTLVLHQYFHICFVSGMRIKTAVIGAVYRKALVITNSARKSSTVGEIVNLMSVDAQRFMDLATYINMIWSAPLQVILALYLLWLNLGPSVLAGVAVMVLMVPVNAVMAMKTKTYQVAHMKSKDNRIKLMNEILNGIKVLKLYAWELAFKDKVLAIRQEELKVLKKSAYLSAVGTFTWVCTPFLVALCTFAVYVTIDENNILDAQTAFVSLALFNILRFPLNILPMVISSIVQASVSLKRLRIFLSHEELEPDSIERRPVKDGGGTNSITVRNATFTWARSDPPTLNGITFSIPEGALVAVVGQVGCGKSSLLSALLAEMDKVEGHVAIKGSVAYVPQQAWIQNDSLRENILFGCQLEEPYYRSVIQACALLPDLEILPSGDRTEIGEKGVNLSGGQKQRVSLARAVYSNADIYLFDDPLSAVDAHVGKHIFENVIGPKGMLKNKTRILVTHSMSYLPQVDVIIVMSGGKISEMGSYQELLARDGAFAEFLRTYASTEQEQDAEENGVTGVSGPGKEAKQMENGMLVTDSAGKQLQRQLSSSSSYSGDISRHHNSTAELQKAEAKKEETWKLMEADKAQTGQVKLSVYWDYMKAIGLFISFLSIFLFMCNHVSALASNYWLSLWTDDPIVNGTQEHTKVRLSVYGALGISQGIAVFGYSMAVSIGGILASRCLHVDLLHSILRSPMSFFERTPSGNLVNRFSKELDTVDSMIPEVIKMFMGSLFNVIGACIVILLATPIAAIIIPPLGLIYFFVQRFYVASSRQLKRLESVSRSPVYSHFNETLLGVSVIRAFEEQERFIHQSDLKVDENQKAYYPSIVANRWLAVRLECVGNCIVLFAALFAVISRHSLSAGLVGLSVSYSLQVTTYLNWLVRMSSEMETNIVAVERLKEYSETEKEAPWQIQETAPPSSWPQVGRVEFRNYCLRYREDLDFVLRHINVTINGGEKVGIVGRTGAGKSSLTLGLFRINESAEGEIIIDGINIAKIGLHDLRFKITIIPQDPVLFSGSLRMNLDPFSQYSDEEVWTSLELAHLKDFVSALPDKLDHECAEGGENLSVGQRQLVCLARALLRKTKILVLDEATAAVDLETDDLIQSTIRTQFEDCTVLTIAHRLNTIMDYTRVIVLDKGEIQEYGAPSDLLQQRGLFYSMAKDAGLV
Chain of hCA I (P00915 whole entry): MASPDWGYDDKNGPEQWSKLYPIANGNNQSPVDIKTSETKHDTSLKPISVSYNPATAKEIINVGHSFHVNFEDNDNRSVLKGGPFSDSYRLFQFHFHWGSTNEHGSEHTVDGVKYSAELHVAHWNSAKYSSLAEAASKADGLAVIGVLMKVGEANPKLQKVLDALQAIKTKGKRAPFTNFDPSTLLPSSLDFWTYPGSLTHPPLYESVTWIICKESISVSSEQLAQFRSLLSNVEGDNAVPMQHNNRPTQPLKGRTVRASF
T1 sequence (P08183 whole entry): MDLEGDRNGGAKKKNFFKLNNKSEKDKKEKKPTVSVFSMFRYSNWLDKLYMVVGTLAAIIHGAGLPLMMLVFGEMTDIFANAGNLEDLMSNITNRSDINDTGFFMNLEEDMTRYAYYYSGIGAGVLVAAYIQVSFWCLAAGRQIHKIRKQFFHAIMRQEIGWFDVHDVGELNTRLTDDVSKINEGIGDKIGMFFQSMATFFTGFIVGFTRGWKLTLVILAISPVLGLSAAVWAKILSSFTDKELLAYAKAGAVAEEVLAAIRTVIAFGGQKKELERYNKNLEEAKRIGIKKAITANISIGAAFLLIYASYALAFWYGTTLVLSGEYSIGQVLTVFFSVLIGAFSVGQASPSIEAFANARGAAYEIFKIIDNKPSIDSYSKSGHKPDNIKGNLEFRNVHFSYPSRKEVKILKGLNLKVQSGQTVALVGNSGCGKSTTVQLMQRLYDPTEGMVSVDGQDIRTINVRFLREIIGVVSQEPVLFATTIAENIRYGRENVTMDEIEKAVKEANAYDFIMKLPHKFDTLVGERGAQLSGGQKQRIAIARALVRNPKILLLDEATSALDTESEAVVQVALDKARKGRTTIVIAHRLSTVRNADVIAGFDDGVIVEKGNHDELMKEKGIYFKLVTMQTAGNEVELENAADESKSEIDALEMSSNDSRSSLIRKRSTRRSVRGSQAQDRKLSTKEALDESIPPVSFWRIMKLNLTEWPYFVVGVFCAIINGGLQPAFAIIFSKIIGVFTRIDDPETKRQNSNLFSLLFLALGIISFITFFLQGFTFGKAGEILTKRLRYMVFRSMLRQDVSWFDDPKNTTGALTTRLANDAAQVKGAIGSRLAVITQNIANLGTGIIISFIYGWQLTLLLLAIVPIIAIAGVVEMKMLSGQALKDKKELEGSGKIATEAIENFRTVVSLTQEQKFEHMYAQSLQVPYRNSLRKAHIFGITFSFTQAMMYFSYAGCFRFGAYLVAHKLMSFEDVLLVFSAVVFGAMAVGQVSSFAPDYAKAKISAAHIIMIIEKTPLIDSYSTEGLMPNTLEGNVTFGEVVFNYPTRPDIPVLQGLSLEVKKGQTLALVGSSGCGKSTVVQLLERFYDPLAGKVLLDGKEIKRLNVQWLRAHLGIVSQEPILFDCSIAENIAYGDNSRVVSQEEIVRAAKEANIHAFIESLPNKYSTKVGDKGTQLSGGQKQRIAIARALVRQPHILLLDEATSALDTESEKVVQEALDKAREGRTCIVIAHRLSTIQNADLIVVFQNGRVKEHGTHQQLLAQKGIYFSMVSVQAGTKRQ

EC50 (P-gp): 0.18 ± 0.03 µM
EC50 MRP1 (MRP1): completely inactive
EC50 BCRP (BCRP): completely inactive
Ki (hCA I): > 10 µM
Ki (hCA II): > 10 µM
Ki (hCA IX): 0.0827 µM
SMILES: COc1cc(C(=O)OCCCCCCN(CCCOC(=O)c2cc(OC)c(OC)c(OC)c2)CCCOc2ccc3ccc(=O)oc3c2)cc(OC)c1OC [Compound 14, 6-((3-((2-Oxo-2H-chromen-7-yl)oxy)propyl)(3-((3,4,5-trimethoxybenzoyl)oxy)propyl)amino)hexyl 3,4,5-Trimethoxybenzoate]
intracellular retention of doxorubicin (HT29/DOX cells): increased
intracellular retention of doxorubicin (A549/DOX cells): increased
intracellular retention of doxorubicin (P-gp KO HT29/DOX cells): did not significantly increase
intracellular retention of doxorubicin (P-gp KO A549/DOX cells): did not significantly increase

melting point: 120 to 123 °C
SMILES: COc1cc(C(=O)OCCCN(CCCCCOC(=O)c2c3ccccc3cc3ccccc23)CCCOc2ccc3ccc(=O)oc3c2)cc(OC)c1OC (as salt: hydrochloride) [Compound 8, 5-((3-((2-Oxo-2H-chromen-7-yl)oxy)propyl)(3-((3,4,5-trimethoxybenzoyl)oxy)propyl)amino)pentyl Anthracene-9-carboxylate]

melting point: 148 to 151 °C
SMILES: COc1cc(C(=O)OCCCCCCN(CCCOC(=O)c2c3ccccc3cc3ccccc23)CCCOc2ccc3ccc(=O)oc3c2)cc(OC)c1OC (as salt: hydrochloride) [Compound 15, 3-((3-((2-Oxo-2H-chromen-7-yl)oxy)propyl)(6-((3,4,5-trimethoxybenzoyl)oxy)hexyl)amino)propyl Anthracene-9-carboxylate]

melting point: 78 to 81 °C
SMILES: COc1cc(/C=C/C(=O)OCCCN(CCCCCCOC(=O)c2cc(OC)c(OC)c(OC)c2)CCCOc2ccc3ccc(=O)oc3c2)cc(OC)c1OC (as salt: hydrochloride) [Compound 13, (E)-6-((3-((2-Oxo-2H-chromen-7-yl)oxy)propyl)(3-((3-(3,4,5-trimethoxyphenyl)acryloyl)oxy)propyl)amino)hexyl 3,4,5-Trimethoxybenzoate]

melting point: 118 to 121 °C
SMILES: O=C(OCCCCCN(CCCOC(=O)c1c2ccccc2cc2ccccc12)CCCOc1ccc2ccc(=O)oc2c1)c1c2ccccc2cc2ccccc12 (as salt: hydrochloride) [Compound 9, 3-((5-((Anthracene-9-carbonyl)oxy)pentyl)(3-((2-oxo-2H-chromen-7-yl)oxy)propyl)amino)propyl Anthracene-9-carboxylate]

melting point: 136 to 139 °C
SMILES: O=C(OCCCCCCN(CCCOC(=O)c1c2ccccc2cc2ccccc12)CCCOc1ccc2ccc(=O)oc2c1)c1c2ccccc2cc2ccccc12 (as salt: hydrochloride) [Compound 18, 3-((6-((Anthracene-9-carbonyl)oxy)hexyl)(3-((2-oxo-2H-chromen-7-yl)oxy)propyl)amino)propyl Anthracene-9-carboxylate]

melting point: 90 to 92 °C
SMILES: COc1cc(/C=C/C(=O)OCCCCCCCN(CCCOC(=O)/C=C/c2cc(OC)c(OC)c(OC)c2)CCCOc2ccc3ccc(=O)oc3c2)cc(OC)c1OC (as salt: hydrochloride) [Compound 19, (E)-7-((3-((2-Oxo-2H-chromen-7-yl)oxy)propyl)(3-(((E)-3-(3,4,5-trimethoxyphenyl)acryloyl)oxy)propyl)amino)heptyl 3-(3,4,5-Trimethoxyphenyl)acrylate]

melting point: 94 to 97 °C
SMILES: COc1cc(/C=C/C(=O)OCCCCCN(CCCOC(=O)c2c3ccccc3cc3ccccc23)CCCOc2ccc3ccc(=O)oc3c2)cc(OC)c1OC (as salt: hydrochloride) [Compound 3, (E)-3-((3-((2-Oxo-2H-chromen-7-yl)oxy)propyl)(5-((3-(3,4,5-trimethoxyphenyl)acryloyl)oxy)pentyl)amino)propyl Anthracene-9-carboxylate]

melting point: 73 to 76 °C
SMILES: COc1cc(/C=C/C(=O)OCCCN(CCCCCCCOC(=O)c2cc(OC)c(OC)c(OC)c2)CCCOc2ccc3ccc(=O)oc3c2)cc(OC)c1OC (as salt: hydrochloride) [Compound 22, (E)-7-((3-((2-Oxo-2H-chromen-7-yl)oxy)propyl)(3-((3-(3,4,5-trimethoxyphenyl)acryloyl)oxy)propyl)amino)heptyl 3,4,5-Trimethoxybenzoate]

melting point: 117 to 119 °C
SMILES: O=C(OCCCCCCCN(CCCOC(=O)c1c2ccccc2cc2ccccc12)CCCOc1ccc2ccc(=O)oc2c1)c1c2ccccc2cc2ccccc12 (as salt: hydrochloride) [Compound 27, 3-((7-((Anthracene-9-carbonyl)oxy)heptyl)(3-((2-oxo-2H-chromen-7-yl)oxy)propyl)amino)propyl Anthracene-9-carboxylate]

EC50 (P-gp): 0.15 ± 0.02 µM
EC50 MRP1 (MRP1): completely inactive
EC50 BCRP (BCRP): completely inactive
Ki (hCA I): > 10 µM
Ki (hCA II): > 10 µM
Ki (hCA IX): 0.0407 µM
SMILES: COc1cc(C(=O)OCCCCCN(CCCOC(=O)c2cc(OC)c(OC)c(OC)c2)CCCOc2ccc3ccc(=O)oc3c2)cc(OC)c1OC [Compound 5, 5-((3-((2-Oxo-2H-chromen-7-yl)oxy)propyl)(3-((3,4,5-trimethoxybenzoyl)oxy)propyl)amino)pentyl 3,4,5-Trimethoxybenzoate]
intracellular retention of doxorubicin (HT29/DOX cells): increased
intracellular retention of doxorubicin (A549/DOX cells): increased
intracellular retention of doxorubicin (P-gp KO HT29/DOX cells): did not significantly increase
intracellular retention of doxorubicin (P-gp KO A549/DOX cells): did not significantly increase

melting point: 92 to 95 °C
SMILES: COc1cc(/C=C/C(=O)OCCCN(CCCCCCOC(=O)c2c3ccccc3cc3ccccc23)CCCOc2ccc3ccc(=O)oc3c2)cc(OC)c1OC (as salt: hydrochloride) [Compound 16, (E)-6-((3-((2-Oxo-2H-chromen-7-yl)oxy)propyl)(3-((3-(3,4,5-trimethoxyphenyl)acryloyl)oxy)propyl)amino)hexyl Anthracene-9-carboxylate]

melting point: 100 to 102 °C
SMILES: COc1cc(/C=C/C(=O)OCCCCCCCN(CCCOC(=O)c2c3ccccc3cc3ccccc23)CCCOc2ccc3ccc(=O)oc3c2)cc(OC)c1OC (as salt: hydrochloride) [Compound 21, (E)-3-((3-((2-Oxo-2H-chromen-7-yl)oxy)propyl)(7-((3-(3,4,5-trimethoxyphenyl)acryloyl)oxy)heptyl)amino)propyl Anthracene-9-carboxylate]

— PMC9661477, “New Dual P-Glycoprotein (P-gp) and Human Carbonic Anhydrase XII (hCA XII) Inhibitors as Multidrug Resistance (MDR) Reversers in Cancer Cells” (Journal of Medicinal Chemistry, 2022)
